Results published in ChEMBL document CHEMBL1201862, “PubChem BioAssay data set” (2004).
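These data come from cells grown in 96-well plates and exposed to compound for 48 hours at five concentrations. GI50 marks 50% less growth.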 Calls of active or inactive are those of the source. No stated cut-off is given here; in the data, active = GI50 up to about 1.1 µM and inactive = higher.

Key:
Assay in all cases: NCI-60 cell line screen, 48 h
HCT-116 = test system: HCT-116
OVCAR-4 = test system: OVCAR-4
NCI-H460 = test system: NCI-H460
NCI-H522 = test system: NCI-H522
A549 = test system: A549
UACC-257 = test system: UACC-257
CAKI-1 = test system: CAKI-1
OVCAR-8 = test system: OVCAR-8
MDA-MB-231 = test system: MDA-MB-231
Malme-3M = test system: Malme-3M
NCI-H226 = test system: NCI-H226
DU-145 = test system: DU-145
SK-OV-3 = test system: SK-OV-3
NCI/ADR-RES = test system: NCI/ADR-RES
SK-MEL-2 = test system: SK-MEL-2
RPMI-8226 = test system: RPMI-8226
HT-29 = test system: HT-29
COLO 205 = test system: COLO 205
SF-295 = test system: SF-295
BT-549 = test system: BT-549
KM12 = test system: KM12
HCC 2998 = test system: HCC 2998
HCT-15 = test system: HCT-15
UO-31 = test system: UO-31
SF-539 = test system: SF-539
786-0 = test system: 786-0
OVCAR-3 = test system: OVCAR-3
SK-MEL-28 = test system: SK-MEL-28
ACHN = test system: ACHN
OVCAR-5 = test system: OVCAR-5
SW-620 = test system: SW-620
HOP-92 = test system: HOP-92
CCRF-CEM = test system: CCRF-CEM
EKVX = test system: EKVX
MDA-N = test system: MDA-N
SN12C = test system: SN12C
K562 = test system: K562
HOP-62 = test system: HOP-62
MOLT-4 = test system: MOLT-4
M14 = test system: M14
NCI-H23 = test system: NCI-H23
MCF7 = test system: MCF7
SR = test system: SR
Hs-578T = test system: Hs-578T
U-251 = test system: U-251
HL-60 = test system: HL-60
SF-268 = test system: SF-268
LOX IMVI = test system: LOX IMVI
TK-10 = test system: TK-10
IGROV-1 = test system: IGROV-1
MDA-MB-435 = test system: MDA-MB-435
PC-3 = test system: PC-3
SNB-19 = test system: SNB-19
SNB-75 = test system: SNB-75
UACC-62 = test system: UACC-62
RXF 393 = test system: RXF 393
A498 = test system: A498
SK-MEL-5 = test system: SK-MEL-5
T47D = test system: T47D

Measured: GI50

Cc1cc(C)c2ccc(N3CCNCC3)nc2n1
inactive: HCT-116 84.1 µM | OVCAR-4 > 100 µM | NCI-H460 > 100 µM | NCI-H522 > 100 µM | A549 > 100 µM | UACC-257 > 100 µM | CAKI-1 > 100 µM | OVCAR-8 > 100 µM | MDA-MB-231 > 100 µM | Malme-3M > 100 µM | NCI-H226 > 100 µM | DU-145 > 100 µM | SK-OV-3 > 100 µM | NCI/ADR-RES > 100 µM | SK-MEL-2 > 100 µM | RPMI-8226 > 100 µM | HT-29 57.7 µM | COLO 205 64.6 µM | SF-295 > 100 µM | BT-549 > 100 µM | KM12 > 100 µM | HCC 2998 > 100 µM | UO-31 41.7 µM | SF-539 > 100 µM | 786-0 67.9 µM | OVCAR-3 > 100 µM | SK-MEL-28 > 100 µM | ACHN > 100 µM | OVCAR-5 > 100 µM | SW-620 > 100 µM | HOP-92 > 100 µM | CCRF-CEM > 100 µM | EKVX > 100 µM | MDA-N > 100 µM | SN12C > 100 µM | K562 > 100 µM | HOP-62 > 100 µM | MOLT-4 > 100 µM | M14 > 100 µM | NCI-H23 > 100 µM | MCF7 > 100 µM | SR > 100 µM | Hs-578T > 100 µM | U-251 > 100 µM | HL-60 55.7 µM | SF-268 > 100 µM | LOX IMVI > 100 µM | TK-10 > 100 µM | IGROV-1 > 100 µM | MDA-MB-435 > 100 µM | PC-3 > 100 µM | SNB-19 > 100 µM | SNB-75 > 100 µM | UACC-62 > 100 µM
> 100 µM: HCT-15

Cc1nn(C(=O)c2ccccc2O)c2c1C(c1ccc(O)cc1O)SC(=N)N2 (stereo not drawn)
3.66 µM: HCT-15
inactive: HCT-116 3.83 µM | OVCAR-4 2.94 µM | NCI-H460 4.6 µM | A549 4.76 µM | CAKI-1 4.29 µM | OVCAR-8 6.04 µM | MDA-MB-231 5.14 µM | Malme-3M > 10 µM | RXF 393 5.52 µM | NCI-H226 1.32 µM | DU-145 8.28 µM | SK-OV-3 3.6 µM | NCI/ADR-RES 3.33 µM | SK-MEL-2 > 10 µM | RPMI-8226 2.89 µM | HT-29 > 10 µM | COLO 205 9.35 µM | SF-295 > 10 µM | A498 3.61 µM | BT-549 2.52 µM | KM12 6.19 µM | UO-31 2.84 µM | SF-539 3.77 µM | 786-0 6.85 µM | OVCAR-3 2.96 µM | SK-MEL-28 8.91 µM | ACHN 4.75 µM | SW-620 5.04 µM | HOP-92 3.67 µM | CCRF-CEM 3.05 µM | EKVX 8.11 µM | MDA-N 5.78 µM | SN12C 9.71 µM | K562 2.63 µM | HOP-62 3.02 µM | MOLT-4 3.48 µM | M14 3.61 µM | NCI-H23 3.98 µM | SR 6.67 µM | Hs-578T 1.91 µM | U-251 5.58 µM | HL-60 5.52 µM | SF-268 4.75 µM | LOX IMVI 4.6 µM | TK-10 > 10 µM | IGROV-1 3.48 µM | MDA-MB-435 4.05 µM | PC-3 3.22 µM | SNB-19 4.86 µM | SNB-75 2.48 µM | UACC-62 1.89 µM | SK-MEL-5 4.12 µM
active: OVCAR-5 1.04 µM | MCF7 0.472 µM

Cc1cccc(C)c1N1C(=O)C2c3[nH]c4ccccc4c3C3CCC(C(C)(C)C)CC3C2C1=O (stereo not drawn)
inactive: HCT-116 9.25 µM | NCI-H460 5.73 µM | A549 12.3 µM | UACC-257 16.5 µM | CAKI-1 12.3 µM | OVCAR-8 17 µM | MDA-MB-231 11.9 µM | Malme-3M 14.4 µM | RXF 393 8.97 µM | NCI-H226 18.4 µM | DU-145 8.45 µM | SK-OV-3 54.5 µM | NCI/ADR-RES 13.8 µM | SK-MEL-2 15.6 µM | RPMI-8226 19.3 µM | HT-29 10.3 µM | COLO 205 10.9 µM | SF-295 17.3 µM | A498 15.7 µM | BT-549 20 µM | HCC 2998 3.85 µM | UO-31 10.8 µM | SF-539 17.5 µM | 786-0 8.67 µM | OVCAR-3 13.7 µM | SK-MEL-28 19.9 µM | ACHN 12.4 µM | OVCAR-5 24.6 µM | SW-620 5.74 µM | HOP-92 6.32 µM | CCRF-CEM 12.6 µM | EKVX 7.16 µM | MDA-N 11.5 µM | SN12C 10.2 µM | K562 9.06 µM | HOP-62 2.43 µM | MOLT-4 24.6 µM | M14 13.6 µM | NCI-H23 14.8 µM | MCF7 3.47 µM | SR 9.91 µM | Hs-578T 16.6 µM | U-251 16.8 µM | HL-60 12.8 µM | SF-268 14.4 µM | LOX IMVI 10.1 µM | TK-10 17.6 µM | IGROV-1 15 µM | MDA-MB-435 11.4 µM | PC-3 6.44 µM | SNB-19 62.4 µM | UACC-62 16.1 µM | SK-MEL-5 14.3 µM
11.4 µM: HCT-15

O=c1[nH]c(=S)c2cc3c(=S)[nH]c(=O)n(CCO)c3nc2n1CCO
inactive: HCT-116 > 100 µM | OVCAR-4 > 100 µM | NCI-H460 > 100 µM | NCI-H522 > 100 µM | A549 > 100 µM | UACC-257 > 100 µM | CAKI-1 > 100 µM | OVCAR-8 > 100 µM | MDA-MB-231 > 100 µM | Malme-3M > 100 µM | RXF 393 > 100 µM | NCI-H226 > 100 µM | SK-OV-3 > 100 µM | NCI/ADR-RES > 100 µM | SK-MEL-2 > 100 µM | RPMI-8226 > 100 µM | COLO 205 > 100 µM | SF-295 > 100 µM | A498 > 100 µM | BT-549 > 100 µM | KM12 > 100 µM | HCC 2998 > 100 µM | UO-31 > 100 µM | SF-539 > 100 µM | 786-0 > 100 µM | OVCAR-3 > 100 µM | SK-MEL-28 > 100 µM | ACHN > 100 µM | OVCAR-5 > 100 µM | SW-620 > 100 µM | HOP-92 > 100 µM | CCRF-CEM > 100 µM | EKVX > 100 µM | MDA-N > 100 µM | SN12C > 100 µM | K562 > 100 µM | HOP-62 > 100 µM | MOLT-4 > 100 µM | M14 > 100 µM | NCI-H23 > 100 µM | MCF7 > 100 µM | SR > 100 µM | U-251 > 100 µM | T47D > 100 µM | SF-268 > 100 µM | LOX IMVI > 100 µM | TK-10 > 100 µM | IGROV-1 > 100 µM | MDA-MB-435 > 100 µM | PC-3 > 100 µM | SNB-19 > 100 µM | SNB-75 > 100 µM | SK-MEL-5 > 100 µM
> 100 µM: HCT-15
